# Organism: Rattus norvegicus
# Experiment: DrugMatrix - Regimen: Daily Repeat
# Assay type: toxicity, organism-based, Sprague-Dawley
# Design: regimen Daily Repeat, gender Male, age 6-8 weeks
# Settings: in vivo, po, route oral GAVAGE; for ABSOLUTE MONOCYTE / ABSOLUTE SEGMENTED NEUTROPHIL / BASOPHIL / EOSINOPHIL / ERYTHROCYTE COUNT / HEMATOCRIT / HEMOGLOBIN / LEUKOCYTE COUNT / LYMPHOCYTE / MEAN CORPUSCULAR HEMOGLOBIN / MEAN CORPUSCULAR HEMOGLOBIN CONCENTRATION / MEAN CORPUSCULAR VOLUME / MONOCYTE / NEUTROPHIL / NUCLEATED RED BLOOD CELLS / PLATELET COUNT / ABSOLUTE BASOPHIL / ABSOLUTE EOSINOPHIL / ABSOLUTE LYMPHOCYTE: tissue Blood; for ALANINE AMINOTRANSFERASE / ALBUMIN / ALKALINE PHOSPHATASE / ASPARTATE AMINOTRANSFERASE / BLOOD UREA NITROGEN / CARBON DIOXIDE / CHLORIDE / CHOLESTEROL / CREATINE PHOSPHOKINASE / CREATININE / GLUCOSE / LACTATE DEHYDROGENASE / LIPASE / PHOSPHORUS / POTASSIUM / SODIUM / TOTAL BILIRUBIN / TOTAL PROTEIN / URIC ACID: tissue Plasma
# [1] = 20 mg/kg, 120 h, dose level Low, time 5 day, […]
# [2] = 54 mg/kg, 72 h, dose level M1, time 3 day, vehicle 100 % WATER
# [3] = 54 mg/kg, 120 h, dose level M1, time 5 day, vehicle 100 % WATER
# [4] = 160 mg/kg, 72 h, dose level High, time 3 day, […]
# [5] = 160 mg/kg, 120 h, dose level High, time 5 day, […]
structure (smiles),measurement,setting,value
Cn1cnc([N+](=O)[O-])c1Sc1ncnc2nc[nH]c12 [AZATHIOPRINE],ABSOLUTE MONOCYTE,[1],73.67 CELLS/uL
same,ABSOLUTE SEGMENTED NEUTROPHIL,[1],134 CELLS/uL
same,BASOPHIL,[1],0%
same,EOSINOPHIL,[1],0%
same,ERYTHROCYTE COUNT,[1],5 x10E6/uL
same,HEMATOCRIT,[1],31.27%
same,HEMOGLOBIN,[1],12.3 G/DL
same,LEUKOCYTE COUNT,[1],5.33 x10E3/uL
same,LYMPHOCYTE,[1],96%
same,MEAN CORPUSCULAR HEMOGLOBIN,[1],24.53 pg
same,MEAN CORPUSCULAR HEMOGLOBIN CONCENTRATION,[1],39.33 G/DL
same,MEAN CORPUSCULAR VOLUME,[1],62.43 fL
same,MONOCYTE,[1],1.33%
same,NEUTROPHIL,[1],2.67%
same,NUCLEATED RED BLOOD CELLS,[1],0 /100WBC
same,PLATELET COUNT,[1],1346.67 x10E3/uL
same,ALANINE AMINOTRANSFERASE,[1],45.33 u/L
same,ALBUMIN,[1],4.33 G/DL
same,ALKALINE PHOSPHATASE,[1],305 u/L
same,ASPARTATE AMINOTRANSFERASE,[1],83 u/L
same,BLOOD UREA NITROGEN,[1],14 mg/dL
same,CARBON DIOXIDE,[1],29.33 mmol/L
same,CHLORIDE,[1],104.33 MEQ/L
same,CHOLESTEROL,[1],75 mg/dL
same,CREATINE PHOSPHOKINASE,[1],212.33 u/L
same,CREATININE,[1],0.4 mg/dL
same,GLUCOSE,[1],152.67 mg/dL
same,LACTATE DEHYDROGENASE,[1],68 u/L
same,LIPASE,[1],13 u/L
same,PHOSPHORUS,[1],10.93 mg/dL
same,POTASSIUM,[1],5.68 MEQ/L
same,SODIUM,[1],146.9 MEQ/L
same,TOTAL BILIRUBIN,[1],0.1 mg/dL
same,TOTAL PROTEIN,[1],6.67 G/DL
same,URIC ACID,[1],0.33 mg/dL
same,ABSOLUTE BASOPHIL,[2],0 CELLS/uL
same,ABSOLUTE EOSINOPHIL,[2],0 CELLS/uL
same,ABSOLUTE LYMPHOCYTE,[2],10600.67 CELLS/uL
same,ABSOLUTE MONOCYTE,[2],39.33 CELLS/uL
same,ABSOLUTE SEGMENTED NEUTROPHIL,[2],326.67 CELLS/uL
same,BASOPHIL,[2],0%
same,EOSINOPHIL,[2],0%
same,ERYTHROCYTE COUNT,[2],5.04 x10E6/uL
same,HEMATOCRIT,[2],31.57%
same,HEMOGLOBIN,[2],12.03 G/DL
same,LEUKOCYTE COUNT,[2],10.97 x10E3/uL
same,LYMPHOCYTE,[2],96.67%
same,MEAN CORPUSCULAR HEMOGLOBIN,[2],23.9 pg
same,MEAN CORPUSCULAR HEMOGLOBIN CONCENTRATION,[2],38.13 G/DL
same,MEAN CORPUSCULAR VOLUME,[2],62.73 fL
same,MONOCYTE,[2],0.33%
same,NEUTROPHIL,[2],3%
same,NUCLEATED RED BLOOD CELLS,[2],0 /100WBC
same,PLATELET COUNT,[2],1322.33 x10E3/uL
same,ALANINE AMINOTRANSFERASE,[2],39.67 u/L
same,ALBUMIN,[2],4.23 G/DL
same,ALKALINE PHOSPHATASE,[2],313.33 u/L
same,ASPARTATE AMINOTRANSFERASE,[2],66 u/L
same,BLOOD UREA NITROGEN,[2],10.67 mg/dL
same,CARBON DIOXIDE,[2],28.67 mmol/L
same,CHLORIDE,[2],100 MEQ/L
same,CHOLESTEROL,[2],81.67 mg/dL
same,CREATINE PHOSPHOKINASE,[2],160.33 u/L
same,CREATININE,[2],0.25 mg/dL
same,GLUCOSE,[2],157.33 mg/dL
same,LACTATE DEHYDROGENASE,[2],114.33 u/L
same,LIPASE,[2],13 u/L
same,PHOSPHORUS,[2],10.63 mg/dL
same,POTASSIUM,[2],6.03 MEQ/L
same,SODIUM,[2],141.9 MEQ/L
same,TOTAL BILIRUBIN,[2],0.13 mg/dL
same,TOTAL PROTEIN,[2],5.97 G/DL
same,URIC ACID,[2],1.17 mg/dL
same,ABSOLUTE BASOPHIL,[3],0 CELLS/uL
same,ABSOLUTE EOSINOPHIL,[3],0 CELLS/uL
same,ABSOLUTE LYMPHOCYTE,[3],4380.67 CELLS/uL
same,ABSOLUTE MONOCYTE,[3],0 CELLS/uL
same,ABSOLUTE SEGMENTED NEUTROPHIL,[3],119.33 CELLS/uL
same,BASOPHIL,[3],0%
same,EOSINOPHIL,[3],0%
same,ERYTHROCYTE COUNT,[3],4.85 x10E6/uL
same,HEMATOCRIT,[3],31.6%
same,HEMOGLOBIN,[3],12.13 G/DL
same,LEUKOCYTE COUNT,[3],4.5 x10E3/uL
same,LYMPHOCYTE,[3],97.33%
same,MEAN CORPUSCULAR HEMOGLOBIN,[3],25 pg
same,MEAN CORPUSCULAR HEMOGLOBIN CONCENTRATION,[3],38.37 G/DL
same,MEAN CORPUSCULAR VOLUME,[3],65.07 fL
same,MONOCYTE,[3],0%
same,NEUTROPHIL,[3],2.67%
same,NUCLEATED RED BLOOD CELLS,[3],0 /100WBC
same,PLATELET COUNT,[3],1116.33 x10E3/uL
same,ALANINE AMINOTRANSFERASE,[3],29.67 u/L
same,ALBUMIN,[3],4.6 G/DL
same,ALKALINE PHOSPHATASE,[3],184.33 u/L
same,ASPARTATE AMINOTRANSFERASE,[3],65.33 u/L
same,BLOOD UREA NITROGEN,[3],14 mg/dL
same,CARBON DIOXIDE,[3],33 mmol/L
same,CHLORIDE,[3],96.33 MEQ/L
same,CHOLESTEROL,[3],91.33 mg/dL
same,CREATINE PHOSPHOKINASE,[3],188.33 u/L
same,CREATININE,[3],0.26 mg/dL
same,GLUCOSE,[3],159.67 mg/dL
same,LACTATE DEHYDROGENASE,[3],98.33 u/L
same,LIPASE,[3],14 u/L
same,PHOSPHORUS,[3],9.43 mg/dL
same,POTASSIUM,[3],5.71 MEQ/L
same,SODIUM,[3],143.23 MEQ/L
same,TOTAL BILIRUBIN,[3],0.13 mg/dL
same,TOTAL PROTEIN,[3],6.97 G/DL
same,URIC ACID,[3],0.23 mg/dL
same,ABSOLUTE BASOPHIL,[4],0 CELLS/uL
same,ABSOLUTE EOSINOPHIL,[4],0 CELLS/uL
same,ABSOLUTE LYMPHOCYTE,[4],4093.67 CELLS/uL
same,ABSOLUTE MONOCYTE,[4],37.33 CELLS/uL
same,ABSOLUTE SEGMENTED NEUTROPHIL,[4],535.67 CELLS/uL
same,BASOPHIL,[4],0%
same,EOSINOPHIL,[4],0%
same,ERYTHROCYTE COUNT,[4],5.12 x10E6/uL
same,HEMATOCRIT,[4],34.5%
same,HEMOGLOBIN,[4],13.07 G/DL
same,LEUKOCYTE COUNT,[4],4.67 x10E3/uL
same,LYMPHOCYTE,[4],87%
same,MEAN CORPUSCULAR HEMOGLOBIN,[4],25.6 pg
same,MEAN CORPUSCULAR HEMOGLOBIN CONCENTRATION,[4],37.87 G/DL
same,MEAN CORPUSCULAR VOLUME,[4],67.47 fL
same,MONOCYTE,[4],0.67%
same,NEUTROPHIL,[4],12.33%
same,NUCLEATED RED BLOOD CELLS,[4],0 /100WBC
same,PLATELET COUNT,[4],1028 x10E3/uL
same,ALANINE AMINOTRANSFERASE,[4],39.33 u/L
same,ALBUMIN,[4],3.87 G/DL
same,ALKALINE PHOSPHATASE,[4],207.67 u/L
same,ASPARTATE AMINOTRANSFERASE,[4],81.33 u/L
same,BLOOD UREA NITROGEN,[4],10.33 mg/dL
same,CARBON DIOXIDE,[4],36 mmol/L
same,CHLORIDE,[4],107.67 MEQ/L
same,CHOLESTEROL,[4],84.67 mg/dL
same,CREATINE PHOSPHOKINASE,[4],296.67 u/L
same,CREATININE,[4],0.13 mg/dL
same,GLUCOSE,[4],192.33 mg/dL
same,LACTATE DEHYDROGENASE,[4],87.67 u/L
same,LIPASE,[4],11.33 u/L
same,PHOSPHORUS,[4],7.6 mg/dL
same,POTASSIUM,[4],5.08 MEQ/L
same,SODIUM,[4],138.17 MEQ/L
same,TOTAL BILIRUBIN,[4],0.13 mg/dL
same,TOTAL PROTEIN,[4],5.63 G/DL
same,URIC ACID,[4],0.3 mg/dL
same,ABSOLUTE BASOPHIL,[5],0 CELLS/uL
same,ABSOLUTE EOSINOPHIL,[5],0 CELLS/uL
same,ABSOLUTE LYMPHOCYTE,[5],1710 CELLS/uL
same,ABSOLUTE MONOCYTE,[5],38 CELLS/uL
same,ABSOLUTE SEGMENTED NEUTROPHIL,[5],152 CELLS/uL
same,BASOPHIL,[5],0%
same,EOSINOPHIL,[5],0%
same,ERYTHROCYTE COUNT,[5],7.48 x10E6/uL
same,HEMATOCRIT,[5],45.7%
same,HEMOGLOBIN,[5],15.7 G/DL
same,LEUKOCYTE COUNT,[5],1.9 x10E3/uL
same,LYMPHOCYTE,[5],90%
same,MEAN CORPUSCULAR HEMOGLOBIN,[5],21 pg
same,MEAN CORPUSCULAR HEMOGLOBIN CONCENTRATION,[5],34.4 G/DL
same,MEAN CORPUSCULAR VOLUME,[5],61.1 fL
same,MONOCYTE,[5],2%
same,NEUTROPHIL,[5],8%
same,NUCLEATED RED BLOOD CELLS,[5],0 /100WBC
same,PLATELET COUNT,[5],666 x10E3/uL
same,ALANINE AMINOTRANSFERASE,[5],237 u/L
same,ALBUMIN,[5],2.8 G/DL
same,ALKALINE PHOSPHATASE,[5],281 u/L
same,ASPARTATE AMINOTRANSFERASE,[5],835 u/L
same,BLOOD UREA NITROGEN,[5],15 mg/dL
same,CARBON DIOXIDE,[5],36 mmol/L
same,CHLORIDE,[5],106 MEQ/L
same,CHOLESTEROL,[5],13 mg/dL
same,CREATINE PHOSPHOKINASE,[5],348 u/L
same,CREATININE,[5],0.38 mg/dL
same,GLUCOSE,[5],192 mg/dL
same,LACTATE DEHYDROGENASE,[5],280 u/L
same,LIPASE,[5],10 u/L
same,PHOSPHORUS,[5],6.3 mg/dL
same,POTASSIUM,[5],4.73 MEQ/L
same,SODIUM,[5],147 MEQ/L
same,TOTAL BILIRUBIN,[5],0.2 mg/dL
same,TOTAL PROTEIN,[5],3.4 G/DL
same,URIC ACID,[5],0.2 mg/dL

# Reference: ChEMBL document CHEMBL3885881, “DrugMatrix”
